Experimental findings from patent US20220056023A1, “PREPARATION AND APPLICATION OF CLASS OF N-CONTAINING HETEROCYCLIC COMPOUNDS HAVING IMMUNOREGULATORY FUNCTION” (SHANGHAI ENNOVABIO PHARMACEUTICALS CO., LTD., priority 2018, published 2022) are described below.

Bounds are passed on as bounds.

In the assay the target is T1, PD-1/PD-L1 (Homo sapiens, UniProt Q9NZQ7).
T1 construct: purchased Cisbio 63ADK000CPDEC
T1 sequence (Q9NZQ7 19-238 limits assumed): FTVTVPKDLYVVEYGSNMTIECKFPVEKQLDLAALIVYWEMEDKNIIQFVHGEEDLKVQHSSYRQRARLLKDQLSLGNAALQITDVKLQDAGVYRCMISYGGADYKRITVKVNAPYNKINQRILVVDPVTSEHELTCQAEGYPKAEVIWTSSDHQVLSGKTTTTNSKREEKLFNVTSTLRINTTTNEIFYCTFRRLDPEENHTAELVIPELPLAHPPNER
Briefly: PD-1/PD-L1 homogeneous time-resolved fluorescence (HTRF) binding assay. The following applies: Tag 1-PD-L1 / Tag 2-PD-1, Cisbio kit. The text has this:
The PD-1/PD-L1 homogeneous time-resolved fluorescence method is used to detect the binding ability of the compound with PD-L1.
PD-1/PD-L1 binding assay kit (Cisbio, Cat #63ADK000CPDEC) was chosen, which contains two proteins Tag 1-PD-L1 and Tag 2-PD-1, and two antibodies Anti-Tag1-Eu^3+ and Anti-Tag2-XL 665. The principle of detection was: Anti-tag1-Eu^3+ was used as the donor of HTRF, and Anti-Tag2-XL 665 was used as the acceptor of HTRF. When Tag 1-PD-L1 interacts with Tag 2-PD-1, the added HTRF donor and the acceptor are close to each other. After the donor has received the excitation energy, part of the energy was transferred to the acceptor, thus generating 665 nm emission light. […] The inhibitory effect of the compound can be determined by comparing the ratio of 665 nm/620 nm. Tag 1-PD-L1 was diluted with Diluent buffer (cat #62DLBDDF) to a working concentration of 10 nM, Tag 2-PD-1 was diluted with Diluent buffer to a working concentration of 500 nM, Anti-Tag1-Eu^3+ was diluted with detection buffer (cat #62DB1FDG) at a ratio of 1:100, Anti-Tag2-XL 665 was diluted with detection buffer at a ratio of 1:20, and the compound to be detected was diluted with diluent buffer to a final concentration of 2×. Compound (2 μL) was added to each well of a 384-well plate, then Tag 1-PD-L1 (4 μL) and Tag 2-PD-1 (4 μL) were added successively. The mixture was incubated at room temperature for 15 minutes. Then Anti-Tag1-Eu^3+ (5 μL) and Anti-Tag2-XL 665 (5 μL) were added, and the mixture was incubated overnight at room temperature. BioTek Synergy™ Neo2 multifunctional microplate reader was used to detect so as to provide the 665 nm/620 nm ratio. PrismGraphd 5.02 was used to fit the IC50 curve.
By IC50 is commonly meant the concentration needed to halve the response being measured. With `OCCNCc1cnc2nn(-c3cccc(-c4ccccc4)c3Cl)cc2c1` [Compound 1, 2-(((2-(2-Chloro-[1,1′-biphenyl]-3-yl)-2H-pyrazolo[3,4-b]pyridin-5-yl)methyl)amino) ethane-1-ol], the IC50 was 100 to 1000 nM.
Regarding `COc1cc(CNCCO)cc2c1CN(c1cccc(-c3ccccc3)c1Cl)C2` [Compound 10, 2-(((2-(2-Chloro-[1,1′-biphenyl]-3-yl)-7-methoxyisoindolin-5-yl)methyl)amino)ethane-1-ol], the IC50 is under 100 nM.
With `COc1nc(CN2CCCC[C@H]2C(=O)O)nc2c1CN(c1cccc(-c3ccccc3)c1Cl)C2` [Compound 6, (S)-1-((6-(2-Chloro-[1,1′-biphenyl]-3-yl)-4-methoxy-6,7-dihydro-5H-pyrrolo[3,4-d)pyrimidin-2-yl)methyl)piperidine-2-carboxylic acid] the figure was under 100 nM; with `Cc1c(-c2ccccc2)cccc1-n1cc2cc(CNCCO)cc(C#N)c2n1` [Compound 9, (((2-Hydroxyethyl)amino)methyl)-2-(2-methyl-[1,1′-biphenyl]-3-yl)-2H-indazole-7-carbonitrile], 100 to 1000 nM.
Under `COc1nc(CNCCO)nc2c1CN(c1cccc(-c3ccccc3)c1Cl)C2` [Compound 5, 2-(((6-(2-Chloro-[1,1′-biphenyl]-3-yl)-4-methoxy-6,7-dihydro-5H-pyrrolo[3,4-d)pyrimidin-2-yl)methyl)amino)ethane-1-ol] stands under 100 nM.
